Laboratory results taken from patent US6737383B1, “Herbicidal oxadiazolidines” (priority 1999, dated 2004).

Key:
[1] = test system: corn; assay: Test B pre/postemergence corn; type: in vivo, Zea mays; conditions: for Corn plant response rating (0 to 10 scale): 0 is no effect
Procedure, shortened: (§1)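 Response is a visual 0-to-10 score relative to untreated plants, where 0 means no effect and 10 means complete control, taken twelve to sixteen days after application. Treatments went onto soil at planting and onto foliage of 1- to 4-leaf plants, using a surfactant-containing non-phytotoxic solvent.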

[2] = test system: rape; assay: Test B pre/postemergence rape; type: in vivo, Brassica napus; conditions: for Rape plant response rating (0 to 10 scale): 0 is no effect
Procedure, shortened: as §1

[3] = test system: sugar beet; assay: Test B pre/postemergence sugar beet; type: in vivo, Beta vulgaris; conditions: for Sugarbeets plant response rating (0 to 10 scale): 0 is no effect
Procedure, shortened: as §1

[4] = test system: duck salad; assay: Test B flood test duck salad; type: in vivo, Heteranthera limosa
Procedure, shortened: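 Flood test on plants grown to the 2-leaf stage; treated plants kept in greenhouse twelve to sixteen days, then visually rated against controls on a 0 (no effect) to 10 (complete control) scale.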

[5] = Preemergence, Rate 62 g/ha, scale of 0 to 10 where 0 is no effect and 10 is complete control
[6] = Preemergence, Rate 125 g/ha, 10 is complete control
[7] = Preemergence, Rate 250 g/ha, scale 0 to 10, 0 is no effect, 10 is complete control
[8] = Preemergence, Rate 500 g/ha, scale 0 to 10 (0 no effect, 10 complete control)
[9] = Rate 62 g/ha, Postemergence, scale of 0 to 10 where 0 is no effect and 10 is complete control
[10] = Rate 125 g/ha, Postemergence, scale 0 to 10
[11] = Rate 500 g/ha, Postemergence, scale 0 to 10
[12] = Postemergence, Rate 125 g/ha, scale of 0 to 10 where 0 is no effect and 10 is complete control
[13] = Preemergence, Rate 62 g/ha, scale 0 to 10 (0 no effect, 10 complete control)
[14] = Rate 250 g/ha, Postemergence, scale 0 to 10, 0 is no effect, 10 is complete control

COc1nc(OC)nc(N(C(=O)n2oc(=O)n(-c3c(C)cccc3C)c2=O)C(C)C)n1 [Compound 180]
0: Corn plant response rating [1, 5] | Corn plant response rating (0 to 10 scale) [1, 6] | Corn plant response rating [1, 7] | Corn plant response rating [1, 8] | Corn plant response rating [1, 9] | Corn plant response rating [1, 10] | Plant response rating (0 to 10; 0 is no effect, 10 is complete control), Corn ([1]; Rate 250 g/ha, Postemergence) | Corn plant response rating [1, 11] | Rape plant response rating [2, 5] | Rape plant response rating (0 to 10 scale) [2, 6] | Rape plant response rating [2, 7] | Rape plant response rating [2, 8] | Rape plant response rating [2, 9] | Rape plant response rating [2, 10] | Plant response rating (0 to 10; 0 is no effect, 10 is complete control), Rape ([2]; Rate 250 g/ha, Postemergence) | Rape plant response rating [2, 11] | Sugarbeets plant response rating [3, 5] | Sugarbeets plant response rating (0 to 10 scale) [3, 6] | Sugarbeets plant response rating [3, 7] | Sugarbeets plant response rating [3, 8] | Sugarbeets plant response rating [3, 9] | Sugarbeets plant response rating [3, 10] | Plant response rating (0 to 10; 0 is no effect, 10 is complete control), Sugarbeets ([3]; Rate 250 g/ha, Postemergence) | Sugarbeets plant response rating [3, 11] | Ducksalad plant response rating ([4]; Rate 62 g/ha, headed Pre-emergence (flood test species), scale 0 to 10 (0 no effect, 10 complete control)) | Ducksalad plant response rating ([4]; Rate 125 g/ha, Pre-emergence, flood test species, scale 0 to 10 where 0 is no effect and 10 is complete control) | Ducksalad plant response rating ([4]; Rate 250 g/ha, Pre-emergence, flood-test species, scale 0 to 10, 0 is no effect, 10 is complete control) | Plant response rating, Ducksalad ([4]; Rate 500 g/ha, headed Pre-emergence (flood test species), scale 0 to 10 (0 no effect, 10 complete control))

CN(C(=O)n1oc(=O)n(Cc2ccccc2)c1=O)c1ccccc1 [Compound 153]
0: Corn plant response rating [1, 12] | Corn plant response rating [1, 13] | Corn plant response rating (0 to 10 scale) [1, 6] | Corn plant response rating [1, 7] | Corn plant response rating [1, 8] | Corn plant response rating [1, 9] | Plant response rating, Corn [1, 14] | Corn plant response rating [1, 11] | Rape plant response rating [2, 12] | Rape plant response rating [2, 13] | Rape plant response rating (0 to 10 scale) [2, 6] | Rape plant response rating [2, 7] | Rape plant response rating [2, 8] | Rape plant response rating [2, 9] | Plant response rating, Rape [2, 14] | Rape plant response rating [2, 11] | Sugarbeets plant response rating [3, 12] | Sugarbeets plant response rating [3, 13] | Sugarbeets plant response rating (0 to 10 scale) [3, 6] | Sugarbeets plant response rating [3, 7] | Sugarbeets plant response rating [3, 8] | Sugarbeets plant response rating [3, 9] | Plant response rating, Sugarbeets [3, 14] | Sugarbeets plant response rating [3, 11] | Ducksalad plant response rating ([4]; Postemergence (flood test species), Rate 125 g/ha, scale of 0 to 10 where 0 is no effect and 10 is complete control) | Ducksalad plant response rating ([4]; Rate 62 g/ha, Postemergence section, flood test species, scale of 0 to 10 where 0 is no effect and 10 is complete control) | Plant response rating, Ducksalad ([4]; Rate 250 g/ha, Postemergence (flood test), scale 0 to 10, 0 is no effect, 10 is complete control) | Ducksalad plant response rating ([4]; Rate 500 g/ha, listed under Postemergence (flood test species), scale 0 to 10)
